From US4510136A (priority 1983, dated 1985)

Assays:
[1] = test system: Helminthosporium maydis; test: Southern corn leaf blight control on sprayed corn seedlings (Example 83); format: in vivo; conditions: Bipolaris maydis, 192 h, 100 ppm spray, day before inoculation
Summary of the method: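 Compounds in 6% acetone at 100 ppm in water with 250 ppm TREM 014 surfactant, sprayed to run-off on corn seedlings; next day inoculated with spore suspension. 24 h at saturated humidity and 20°, then 7 days in growth room before disease rating; phytotoxicity scored as growth reduction.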

[2] = test system: Pyricularia oryzae; test: whole plant or invertebrate; format: in vivo; conditions: Pyricularia oryzae, 168 h, read-out: % Control of Rice Blast, 100 ppm spray, day before inoculation
[3] = test system: Phytophthora infestans; test: whole plant or invertebrate; format: in vivo; conditions: Phytophthora infestans, in Solanum lycopersicum, 168 h, read-out: % Control of Tomato Late Blight, 100 ppm spray, day before inoculation
[4] = test system: Pythium aphanadermatum; test: Pythium control on corn, seed coating (Example 92); format: in vivo; conditions: 504 h, 2 gm/kg seed
Method: Several compounds of the previous examples were incorporated into a proprietary formulation and used to coat corn seeds at a rate of 2 gm/kg seed. After being thoroughly coated, the seeds were allowed to air dry at room temperature. The seeds were then planted into soil amended with a mixture of the fungus Pythium aphanadermatum, sand, and corn meal at a rate sufficient to kill most untreated seeds. The seeds were held at 49° F. for 2 weeks and then at 70° F. for 1 additional week. After this time disease ratings were made.

[5] = test system: Cercospora arachidicola; test: Peanut early leafspot control on sprayed peanut seedlings (Example 84); format: in vivo; conditions: Mycosphaerella arachidis, 360 h, 100 ppm spray, day before inoculation; read-out: % Control Peanut Easly Leafspot
[6] = test system: Puccinia recondita var. tritici; test: Wheat leaf rust control on sprayed wheat seedlings (Example 79); format: in vivo; conditions: Puccinia recondita, 168 h; 100 ppm spray, day before inoculation
Summary of the method: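 Wheat seedlings were sprayed to run-off with 100 ppm compound suspended in water with 6% acetone and 250 ppm TREM 014 surfactant. Next day they were inoculated with Puccinia recondita var. tritici spores and held 24 h at saturated humidity, 20°. Rust pustules were rated after a further 7 days in a growth room.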

[7] = test system: Erysiphe cichoracearum; test: Cucumber powdery mildew control on sprayed cucumber seedlings (Example 80); format: in vivo; conditions: Golovinomyces cichoracearum, 168 h, 100 ppm spray, day before inoculation
[8] = test system: Venturia inaequalis; test: Apple scab control on sprayed apple seedlings (Example 82); format: in vivo; conditions: Venturia inaequalis, 100 ppm spray, day before inoculation
[9] = test system: Pythium aphanadermatum; test: Pythium control on cotton, seed coating (Example 91); format: in vivo; conditions: 168 h, 2 gm/kg seed
Excerpt: Several compounds of the previous examples were incorporated into a proprietary formulation and used to coat cotton seeds at a rate of 2 gm/kg seed. After being thoroughly coated, the seeds were allowed to air dry at room temperature. The cotton seeds were then planted into soil amended with the fungus Pythium aphanadermatum, sand, and corn meal at a rate sufficient to kill most untreated seeds. The seeds were held at room temperature for 1 week, after which time disease ratings were made.

[10] = test system: Rhizoctonia solani; test: Rice sheath blight control on sprayed rice seedlings (Example 87); format: in vivo; conditions: Rhizoctonia solani, 168 h, 100 ppm spray, day before inoculation
Summary of the method: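 Rice seedlings were sprayed to run-off with 100 ppm compound suspended in water with 6% acetone and 250 ppm TREM 014 surfactant. They were inoculated next day with bran plus R. solani mycelium. Sheath blight was rated after 7 days in a growth room.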

[11] = test system: Monilinia fructicola; test: Stone fruit brown rot control on dipped canned peach halves (Example 86); conditions: 120 h, 100 ppm dip, percent growth inhibition of colonies after five days
Excerpt: Several compounds of the previous examples were again dissolved in acetone in an amount equal to 5% of the final volume and then suspended at a concentration of 100 ppm in purified water containing 700 ppm of the surfactant TREM 014 (polyhydric alcohol esters). Canned peach halves were dipped in this suspension for three minutes and then placed to air dry in sterile containers. Upon drying, the peach halves were inoculated with two pieces of Monilinia fructicola mycelium, causal agent of stone fruit brown rot, and incubated in the sterile containers for five days. At that time the radii of the colonies' growth were measured on each peach. […] Percent disease control (percent growth inhibition of colonies on treated peaches as compared to that of colonies on untreated peaches) is expressed in the table below.

[12] = test system: Erysiphe graminis; test: Barley powdery mildew control on sprayed barley seedlings (Example 81); format: in vivo; conditions: Blumeria graminis, 168 h; 100 ppm spray, day before inoculation
Method: The compounds of the previous examples were again dissolved in acetone in an amount equal to 6% of the final volume and then suspended at a concentration of 100 ppm in purified water containing 250 ppm of the surfactant TREM 014 (polyhydric alcohol esters). These suspensions were sprayed to the point of run-off on barley seedlings. The following day, the plants were inoculated with a spore suspension of the fungus Erysiphe graminis, causal agent of barley powdery mildew, and incubated in growth room for 7 days. Disease ratings were then made. Treated plants from successful treatments had little or no powdery mildew in contrast to untreated plants which were covered with powdery mildew.

[13] = test system: 5 Phytophthora species; format: cell-based; conditions: 200.0 ppm in V-8 agar, 22° C., 6 days
[14] = test system: cucumber seedlings; test: Phytotoxicity on cucumber seedlings (Example 80); format: in vivo; design: key: G = growth reduction; H = hormonal effects; conditions: 100 ppm spray
Method: The compounds of the previous example were again dissolved in acetone in an amount equal to 6% of the final volume and then suspended at a concentration of 100 ppm in purified water containing 250 ppm of the surfactant TREM 014 (polyhydric alcohol esters). These suspensions were sprayed to the point of run-off, on cucumber seedlings. The following day, the plants were inoculated with a spore suspension of the fungus Erysiphe cichoracearum, causal agent of cucumber powdery mildew, and incubated in a growth room for 7 days. Disease ratings were then made. Treated plants from successful treatments had little or no powdery mildew in contrast to untreated plants which were covered with powdery mildew. Phytotoxicity in the form of growth reduction or hormonal effects was observed on some of the plants in association with disease control.

## CC[Si](C)(C)Cn1cncn1 [Ethyldimethyl(1H-1,2,4-triazol-1-ylmethyl)silane]
[1]
  pest or weed control at 100 ppm: 0%
[2]
  pest or weed control at 100 ppm: 0%
[3]
  pest or weed control at 100 ppm: 0%
[4]
  pest or weed control at 2 g/kg seed: 13%
[5]
  pest or weed control at 100 ppm: 0%
[6]
  pest or weed control at 100 ppm: 0%
[7]
  pest or weed control at 100 ppm: 100%
[8]
  pest or weed control at 100 ppm: 0%
[9]
  pest or weed control at 2 g/kg seed: 48%

## COc1ccc([Si](C)(C)Cn2cncn2)cc1 [Dimethyl(4-methoxyphenyl)(1H-1,2,4-triazol-1-ylmethyl)silane]
[10]
  pest or weed control at 100 ppm: 0%
[1]
  pest or weed control at 100 ppm: 90%
[2]
  pest or weed control at 100 ppm: 0%
[3]
  pest or weed control at 100 ppm: 0%
[5]
  pest or weed control at 100 ppm: 0%
[6]
  pest or weed control at 100 ppm: 0%
[11]
  inhibition of growth at 100 µg/mL: 97%
[7]
  pest or weed control at 100 ppm: 100%
[8]
  pest or weed control at 100 ppm: 100%
[9]
  pest or weed control at 2 g/kg seed: 0%
[12]
  pest or weed control at 100 ppm: 100%

## C[Si](C)(Cn1cncn1)c1ccc(-c2ccccc2)cc1 [(1,1'-Biphenyl-4-yl)dimethyl(1H-1,2,4-triazol-1-ylmethyl)silane]
[1]
  pest or weed control at 100 ppm: 90%
[4]
  pest or weed control at 2 g/kg seed: 30%
[5]
  pest or weed control at 100 ppm: 100%
[6]
  pest or weed control at 100 ppm: 100%
[11]
  inhibition of growth at 100 µg/mL: 100%
[7]
  pest or weed control at 100 ppm: 100%
[8]
  pest or weed control at 100 ppm: 100%
[9]
  pest or weed control at 2 g/kg seed: 12%

## CCCC[Si](C)(C)Cn1cncn1 [Butyldimethyl(1H-1,2,4-triazol-1-ylmethyl)silane]
[1]
  pest or weed control at 100 ppm: 0%
[2]
  pest or weed control at 100 ppm: 0%
[3]
  pest or weed control at 100 ppm: 0%
[4]
  pest or weed control at 2 g/kg seed: 0%
[5]
  pest or weed control at 100 ppm: 0%
[6]
  pest or weed control at 100 ppm: 0%
[11]
  inhibition of growth at 100 µg/mL: 95%
[7]
  pest or weed control at 100 ppm: 100%
[8]
  pest or weed control at 100 ppm: 0%
[13]
  No. of 5 Phytophthora species controlled in vitro: 1
[9]
  pest or weed control at 2 g/kg seed: 0%

## C[Si](Cn1cncn1)(c1ccccc1)c1ccccc1 [Methyldiphenyl(1H-1,2,4-triazol-1-ylmethyl)silane]
[10]
  pest or weed control at 100 ppm: 0%
[1]
  pest or weed control at 100 ppm: 80%
[2]
  pest or weed control at 100 ppm: 0%
[3]
  pest or weed control at 100 ppm: 0%
[4]
  pest or weed control at 2 g/kg seed: 0%
[5]
  pest or weed control at 100 ppm: 100%
[14]
  Phytotoxicity on cucumber: G
[6]
  pest or weed control at 100 ppm: 0%
[7]
  pest or weed control at 100 ppm: 100%
[8]
  pest or weed control at 100 ppm: 100%
[9]
  pest or weed control at 2 g/kg seed: 0%
[12]
  pest or weed control at 100 ppm: 100%

## C[Si](C)(Cn1cnnc1)c1ccc(-c2ccccc2)cc1 [(1,1'-Biphenyl-4-yl)dimethyl(4H-1,2,4-triazol-4-ylmethyl)silane]
[10]
  pest or weed control at 100 ppm: 0%
[1]
  pest or weed control at 100 ppm: 100%
[2]
  pest or weed control at 100 ppm: 0%
[3]
  pest or weed control at 100 ppm: 0%
[5]
  pest or weed control at 100 ppm: 0%
[6]
  pest or weed control at 100 ppm: 0%
[11]
  inhibition of growth at 100 µg/mL: 96%
[7]
  pest or weed control at 100 ppm: 90%
[8]
  pest or weed control at 100 ppm: 80%
[12]
  pest or weed control at 100 ppm: 0%

## C[Si](C)(Cn1cncn1)c1cccc2ccccc12 [Dimethyl(1-naphthalenyl)(1H-1,2,4-triazol-1-ylmethyl)silane]
[10]
  pest or weed control at 100 ppm: 0%
[1]
  pest or weed control at 100 ppm: 0%
[2]
  pest or weed control at 100 ppm: 70%
[3]
  pest or weed control at 100 ppm: 0%
[4]
  pest or weed control at 2 g/kg seed: 30%
[5]
  pest or weed control at 100 ppm: 90%
[6]
  pest or weed control at 100 ppm: 0%
[7]
  pest or weed control at 100 ppm: 100%
[8]
  pest or weed control at 100 ppm: 50%
[12]
  pest or weed control at 100 ppm: 0%

## C[Si](C)(Cn1cncn1)c1ccc(Cl)c(Cl)c1 [(3,4-Dichlorophenyl)dimethyl(1H-1,2,4-triazol-1-ylmethyl)silane]
[10]
  pest or weed control at 100 ppm: 80%
[1]
  pest or weed control at 100 ppm: 90%
[2]
  pest or weed control at 100 ppm: 0%
[3]
  pest or weed control at 100 ppm: 0%
[4]
  pest or weed control at 2 g/kg seed: 43%
[5]
  pest or weed control at 100 ppm: 0%
[6]
  pest or weed control at 100 ppm: 60%
[7]
  pest or weed control at 100 ppm: 100%
[8]
  pest or weed control at 100 ppm: 80%
[13]
  No. of 5 Phytophthora species controlled in vitro: 2
[12]
  pest or weed control at 100 ppm: 100%

## C[Si](C)(Cn1cncn1)c1ccc(Oc2ccc(Cl)cc2)cc1 [[4-(4-Chlorophenoxy)phenyl]dimethyl(1H-1,2,4-triazol-1-ylmethyl)silane]
[10]
  pest or weed control at 100 ppm: 0%
[1]
  pest or weed control at 100 ppm: 50%
[2]
  pest or weed control at 100 ppm: 0%
[3]
  pest or weed control at 100 ppm: 50%
[5]
  pest or weed control at 100 ppm: 0%
[6]
  pest or weed control at 100 ppm: 90%
[7]
  pest or weed control at 100 ppm: 80%
[8]
  pest or weed control at 100 ppm: 100%
[13]
  No. of 5 Phytophthora species controlled in vitro: 0

## CCCC[Si](C)(Cn1cncn1)c1ccc(F)cc1 (stereo not shown) [Butyl(4-fluorophenyl)methyl(1H-1,2,4-triazol-1-ylmethyl)silane]
[10]
  pest or weed control at 100 ppm: 80%
[1]
  pest or weed control at 100 ppm: 0%
[2]
  pest or weed control at 100 ppm: 100%
[3]
  pest or weed control at 100 ppm: 0%
[4]
  pest or weed control at 2 g/kg seed: 0%
[5]
  pest or weed control at 100 ppm: 0%
[6]
  pest or weed control at 100 ppm: 0%
[11]
  inhibition of growth at 100 µg/mL: 100%
[7]
  pest or weed control at 100 ppm: 100%
[8]
  pest or weed control at 100 ppm: 100%
[9]
  pest or weed control at 2 g/kg seed: 0%

## C[Si](Cn1cncn1)(c1ccccc1)c1ccc(-c2ccccc2)cc1 (stereo not shown) [(1,1'-Biphenyl-4-yl)methyl(phenyl)(1H-1,2,4-triazol-1-ylmethyl)silane]
[10]
  pest or weed control at 100 ppm: 0%
[1]
  pest or weed control at 100 ppm: 90%
[2]
  pest or weed control at 100 ppm: 0%
[3]
  pest or weed control at 100 ppm: 0%
[4]
  pest or weed control at 2 g/kg seed: 0%
[5]
  pest or weed control at 100 ppm: 100%
[6]
  pest or weed control at 100 ppm: 100%
[7]
  pest or weed control at 100 ppm: 100%
[8]
  pest or weed control at 100 ppm: 100%
[9]
  pest or weed control at 2 g/kg seed: 0%

## c1ccc([Si](Cn2cncn2)(c2ccccc2)c2ccccc2)cc1 [(1H-1,2,4-Triazol-1-ylmethyl)triphenylsilane]
[10]
  pest or weed control at 100 ppm: 0%
[1]
  pest or weed control at 100 ppm: 0%
[2]
  pest or weed control at 100 ppm: 0%
[3]
  pest or weed control at 100 ppm: 0%
[5]
  pest or weed control at 100 ppm: 0%
[6]
  pest or weed control at 100 ppm: 0%
[7]
  pest or weed control at 100 ppm: 100%
[8]
  pest or weed control at 100 ppm: 0%
[12]
  pest or weed control at 100 ppm: 100%
